The source of these data is patent publication EP0626943B1, “BISTRIAZENES AS CHEMOTHERAPEUTIC AGENTS” (THE GOVERNMENT OF THE UNITED STATES OF AMERICA as …, priority 1991, dated 1993).

Molecules are shown by their SMILES. Read-outs that look alike come from different tables or passages of the source.

One data set concerns LXFL 529. Kind of data set: Clonogenic assay (two-layer soft agar culture). The format is cell-based. Particulars: Homo sapiens. On the procedure: (§1) Briefly, the assay system consists of a modified, two-layer soft agar culture system. The bottom layer consists of 1 ml of modified Dulbecco medium supplemented with L-glutamine, containing 10% fetal calf serum and 0.5% agar, in a 35 mm petri-dish. The upper layer contains 2-5 x 10^5 viable human tumor cells suspended in a 1 ml volume, consisting of 0.3% agar, 30% fetal calf serum, and the medium. The drugs to be tested, contained in 1 ml of medium containing 30% fetal calf serum, are included in the upper layer. Control plates are identical, except for the omission of the drugs. The plates are incubated at 37°C in a humidified atmosphere containing 7% carbon dioxide for varying periods (7-21 days). The time in culture is determined by the rate of colony formation in the control plates. At the end of the culture period, the number of colonies in the drug treated cultures is compared to the number of colonies in the control plates, after visualization of the live colonies by staining with tetrazolium chloride.

The next data set relates to PRCL DU145X. Kind of data set: Clonogenic assay (two-layer soft agar culture). The format is cell-based. The following applies: Homo sapiens, read-out: Test/Control (%) at Drug Concentration (µg/ml). On the procedure: as §1
The next data set deals with RXF 1220. Kind of data set: Clonogenic assay (two-layer soft agar culture). The format is cell-based. Particulars: Homo sapiens, read-out: Test/Control (%) at Drug Concentration (µg/ml). On the procedure: as §1
For a further data set, the system named is human tumor cell lines. Briefly: Clonogenic assay against a panel of human tumor cells (Figures 1-4). In kind it is cell-based. The following applies: for cytotoxicity, overall statement: clonogenic assay, no concentration given. On the procedure: Clonogenic Assay. The response of a variety of human tumor cell lines to bistriazenes was determined via the clonogenic assay described in Fiebig et al. (1987) European Journal of Cancer and Clinical Oncology 23: 937-948.
as §1
The tumors included those derived from colon cancer, three types of lung cancer, mammary cancer, ovarian cancer, two types of kidney cancer, a mesothelioma, a gastric cancer, and a sarcoma. These tumors represent some of the most important cancers for which current treatments are inadequate. For comparison, the assays of the various bistriazenes were compared to the response induced in the same tumors by DTIC, a drug employed in clinical practice.

The nature of data set [1]: Solubility observed on isolation. In kind it is physicochemical. On the procedure: A solution of 3.95 g (25 mmoles) of 2-bromopyridine in 20 ml of dry pentane was added dropwise to 10 ml. of 2.5M butylithium in hexane at -78°C. To the resulting yellow slurry was added dropwise with stirring 1.75 g (12.5 mmoles) of 1,4-diazidobutane in 10 ml. of pentane. Stirring was continued for 2 hr. at -78° and then the reaction mixture was allowed to warm to room temperature. The reaction mixture was treated with 60 ml. of ammonium buffer which caused a precipitate to appear after the reaction was cooled to -78°C. The solid was filtered off. […] The yield was 2.3 g., m.p. 133-136. Spectroscopic data were consistent with the structure.
A solution of butyllithium in hexane (5 ml., 2.5M) was dissolved in 10 ml. of tetrahydrofuran and cooled to -78°C. To this was added dropwise with stirring a solution of 1.98 g (12.5 mmoles) of 2-bromopyridine in 10 ml. of tetrahydrofuran. The dark yellow solution of the pyridine anion was mixed with a solution of 0.70 g (6.2 mmoles) of 1,2-diazidoethane in 10 ml. of tetrahydrofuran at -78°C. After 1 hr. of stirring the dark green solution was treated with 10 ml. of ammonium buffer. The color changed to yellow. The organic solvent was removed in vacuo, and the precipitate was isolated by filtration and washed with copious quantities of diethylether. The powdery material was finally dried under high vacuum. The yield was 770 mg. […] The spectra, however, were fully consistent with the structure.

Data set [2] deals with 32P-endlabeled oligonucleotide. Briefly: Oligonucleotide crosslinking assay. In kind it is biochemical. Particulars: 37°C, 42 hours, pH 7.4. On the procedure: A solution of 6.2 ng of ^32P-endlabeled oligonucleotide in 0.1 M cacodylic acid buffer (0.1 M NaCl, pH 7.4) was allowed to react with the desired compound dissolved in 1/10 volume DMSO. Final concentrations of the compounds in the oligonucleotide solution were 0.1 mM NMUST, 1.0 mM CCNU, or 10 mM bistriazene. Reactions were incubated at 37°C for 42 hours, and analyzed by denaturing polyacrylamide gel electrophoresis (20% gel) followed by autoradiography. the gels were intentionally overexposed to better visualize bands corresponding to interstrand crosslinks. Large amounts of unreacted oligonucleotides were also visualized under these conditions.

Setting [3] is: 1.0 µg/ml, LXFL 529 large cell lung cancer line, read-out: Test/Control (%) at Drug Concentration (µg/ml).
Setting [4] is: 10.0 µg/ml, LXFL 529 large cell lung cancer line, read-out: Test/Control (%) at Drug Concentration (µg/ml).
Setting [5] is: 100.0 µg/ml, LXFL 529 large cell lung cancer line, read-out: Test/Control (%) at Drug Concentration (µg/ml).
The mark [6] stands for this setting: 1.0 µg/ml, PRCL DU145X prostate carcinoma.
Where [7] appears, read: 10.0 µg/ml, PRCL DU145X prostate carcinoma.
The mark [8] stands for this setting: 100.0 µg/ml, PRCL DU145X prostate carcinoma.
The mark [9] stands for this setting: 1.0 µg/ml, RXF 1220 renal carcinoma.
[10] abbreviates: 10.0 µg/ml, RXF 1220 renal carcinoma.
Setting [11] is: 100.0 µg/ml, RXF 1220 renal carcinoma.
Setting [12] is: 1 ug/ml, panel of human tumor cell lines.
The mark [13] stands for this setting: 10 ug/ml, panel of human tumor cell lines.
Setting [14] is: 100 ug/ml, panel of human tumor cell lines.
[15] abbreviates: LXFL 529, read-out: Test/Control (%) at Drug Concentration (µg/ml).

Regarding `c1cncc(N=NNCCNN=Nc2cccnc2)c1` [Example 1a, bis(3-pyridyltriazeno)ethane], the results for the activity at 1 µg/mL in the data set with LXFL 529 (setting [3]), in the data set with PRCL DU145X (setting [6]) and in the data set with RXF 1220 (setting [9]) were 51%, 84% and 99%, respectively. For the same compound, the activity at 10 µg/mL in the data set on LXFL 529 (setting [4]) is 0%; in the data set with PRCL DU145X (setting [7]), 44%; with RXF 1220 (setting [10]), 74%. The activity at 100 µg/mL in the data set with LXFL 529 (setting [5]) came to 0%; in the data set with PRCL DU145X (setting [8]) it was 0%; with RXF 1220 (setting [11]) it was 4%. Also, the “cytotoxicity, overall statement” value in the data set on human tumor cell lines was “potently cytotoxic”.
Take `c1ccc(NN=NCCCCN=NNc2ccccn2)nc1` [compound 14, 1,4-Bis(2-pyridyltriazeno)butane]: the solubility result in data set [1] (common solvents) is “poorly soluble in common solvents such as halomethanes, acetone, methanol and water”; in data set [1] (dimethylsulfoxide), “sparingly soluble”.
`c1ccc(NN=NCCN=NNc2ccccn2)nc1` [compound 15, 1,2-Bis(2-pyridyltriazeno)ethane]: the solubility entry in data set [1] (common solvents) is on record as “not soluble in most solvents, except dimethylsulfoxide”.
As to `O=NN(CCCl)C(=O)NC1CCCCC1` [CCNU, 1-(2-chloroethyl)-3-cyclohexyl-1-nitrosourea, reference compound], the “interstrand crosslinking of oligonucleotides” value (“interstrand crosslinking” for short) in data set [2] (1.0 mM CCNU) is “not as effective at forming crosslinks as the p-xylyl bistriazene derivative”.
On to `CNN=NCc1ccc(CN=NNC)cc1` [bis(methyltriazeno)-p-xylene, 1,4-Bis(methyltriazenomethyl)benzene], for which the results for the cytotoxic activity result with human tumor cell lines (setting [12]), in the data set with human tumor cell lines (setting [13]) and in the data set on human tumor cell lines (setting [14]) were “Some activity was also evident at a dose of 1 ug/ml in about half the cell lines”, “toxicity against approximately half of the cell lines examined” and “highly toxic to all tumor cell lines”, respectively. Further, the “interstrand crosslinking” value in data set [2] (10 mM bistriazene, listed as p-xylyl) was “produce stable crosslinked species in oligonucleotides”; in data set [2] (10 mM bistriazene, listed as p-xylyl bistriazene), “stably covalently crosslinked”.
Regarding `CN(C)N=Nc1[nH]cnc1C(N)=O` [DTIC, 5-(3,3-dimethyltriazeno)imidazole-4-carboxamide, reference compound], the activity at 1 µg/mL came out at 63% in the data set on LXFL 529 (setting [3]), 70% in the data set on PRCL DU145X (setting [6]) and 54% with RXF 1220 (setting [9]). Further, the values for the activity at 10 µg/mL in the data set on LXFL 529 (setting [4]), in the data set on PRCL DU145X (setting [7]) and in the data set with RXF 1220 (setting [10]) were 35%, 44% and 44%, respectively. The activity at 100 µg/mL in the data set with LXFL 529 (setting [5]) came out at 8%; in the data set with PRCL DU145X (setting [8]) it was 43%; with RXF 1220 (setting [11]), 24%. Further, the cytotoxic activity result in the data set with human tumor cell lines (3 ug/ml, panel of human tumor cell lines) was “marginal activity against the gastric cancer”; with human tumor cell lines (30 ug/ml, panel of human tumor cell lines), “activity against the gastric carcinoma GXF251/16 and the ovarian cancer OVXF899/9”; with human tumor cell lines (300 ug/ml, panel of human tumor cell lines), “potently cytotoxic on all cell lines”.
Regarding `O=P1(N(CCCl)CCCl)NC(OO)CCO1` (stereo not shown) [CYCM, 4-hydroperoxycyclophosphamide, reference compound], in the data set with LXFL 529 (setting [15]), the activity at 1 µg/mL was 115%, the activity at 10 µg/mL is 94% and the activity at 100 µg/mL is 19%. Moreover, in the data set with PRCL DU145X, the activity at 1 µg/mL was 108%, the activity at 10 µg/mL is 90% and the activity at 100 µg/mL is 47%. In addition, in the data set on RXF 1220, the activity at 1 µg/mL is 67%, the activity at 10 µg/mL stood at 51% and the activity at 100 µg/mL was found to be 9%.
As for `CNN=NC/C=C/CN=NNC` [1,4-bis(methyltriazeno)-trans-2-butene, 1,4-Bis(methyltriazeno)-trans-2-butene], the cytotoxic activity result is “still significant activity against the lung cancer” in the data set with human tumor cell lines (setting [12]); “activity persisted at 10 ug/ml, especially for the large cell lung carcinoma LXFL529 and the renal cancer RXF423/17” with human tumor cell lines (setting [13]); “potent cytotoxic activity against all the tumors tested” in the data set with human tumor cell lines (setting [14]). In addition, the “cytotoxicity, overall statement” value in the data set on human tumor cell lines was “highly potent against several tumors, especially the large cell lung carcinoma”. The “interstrand crosslinking” value in data set [2] (10 mM bistriazene) is given as “produce stable crosslinked species in oligonucleotides”.
In the case of `CNN=NCCN=NNC` [bis(methyltriazeno)ethane, 1,2-Bis(methyltriazeno)ethane], the cytotoxic activity result was “only marginal, but significant, activity was seen in the large cell lung cancer and in the mammary cancer” with human tumor cell lines (setting [13]); “Relatively little or no activity” in the data set with human tumor cell lines (100 ug/ml, mesothelioma, gastric carcinoma, renal cancer RXF 423/17); “highly cytotoxic at 100 ug/ml to most of the tumor cell lines” in the data set on human tumor cell lines (setting [14]).
Consider `c1cncc(N=NNCCCCNN=Nc2cccnc2)c1` [Example 1b], for which the activity at 1 µg/mL in the data set with LXFL 529 (setting [3]) turned out to be 71%; in the data set with PRCL DU145X (setting [6]) it was 94%; in the data set on RXF 1220 (setting [9]), 82%. The activity at 10 µg/mL in the data set with LXFL 529 (setting [4]) was 1%; with PRCL DU145X (setting [7]), 62%; with RXF 1220 (setting [10]) it was 70%. The activity at 100 µg/mL was found to be 1% in the data set on LXFL 529 (setting [5]), 4% in the data set on PRCL DU145X (setting [8]) and 8% in the data set with RXF 1220 (setting [11]). In addition, the “cytotoxicity, overall statement” value in the data set on human tumor cell lines is “potently cytotoxic”.
